Experimental data reported in US9637451B2, “Indole compound” (ASTELLAS PHARMA INC., priority 2014, dated 2017).

Key:
[1] = CSF-to-plasma unbound concentration ratio in rat after intravenous administration; format: in vivo
Method: A test compound (100 μg/mL, 50% acetonitrile solution) at 1% (v/v) with respect to the amount of the plasma was added to rat plasma, and dispensed to a sample for a supernatant and a sample for the plasma. The sample for a supernatant was ultracentrifuged at 436,000×g and 37° C. for 140 minutes, and the sample for the plasma was incubated at 37° C. for 140 minutes.
After 140 minutes, the sample for a supernatant after the ultracentrifugation and the sample for the plasma were taken, and mixed with the blank plasma or the blank supernatant, respectively. Acetonitrile including an internal standard material was added to each of the samples with the removal of protein, and after the centrifugation at 2150×g and 4° C. for 10 minutes the supernatant was injected into LC-MS/MS.
The unbound fraction in the plasma was calculated by the following equation.
To the plasma of a rat was added a test compound (0.2 mM, 50% acetonitrile solution) in an amount corresponding to 1% (v/v) of the plasma amount, and 200 μL of obtained plasma sample was filled into a plasma chamber of a RED device insert. A buffer chamber was filled with 350 μL of PBS, followed by performing equilibrium dialysis by stirring in a CO2 incubator at 37° C. for 16 hours. The sample after the completion of the equilibrium dialysis was recovered and the volume of the plasma sample was measured. To the plasma sample after the completion of the equilibrium dialysis were added PBS, a 20 mM ammonium formate buffer, and acetonitrile including an internal standard material. Similarly, to the PBS sample after the completion of the equilibrium dialysis was added a blank plasma, a 20 mM ammonium formate buffer, and acetonitrile including an internal standard material. This sample was left to stand at 4° C. for 30 minutes and then centrifuged 1500×g for 10 minutes, and the supernatant was measured by LC-MS/MS. The unbound fraction in the plasma was calculated by the following equation. fp=Cf/{(Cp−Cf)(V/V0)+Cf}
At 15 minutes after intravenously administration of the test compound to the rats, the plasma and CSF were collected. A 50% acetonitrile solution and an acetonitrile including internal standard material were added to the collected plasma or CSF. After centrifuging this sample at 4° C. and 2150×g for 10 minutes, the supernatant was measured by LC-MS/MS, and the total concentration of the test compound in the plasma (Cplasma,t) and the concentration of the test compound in CSF (CCSF) were obtained. The unbound concentration in the plasma (Cplasma,u) of the test compound and the CSF-to-plasma unbound concentration ratio (Kp,uu,CSF) of the test compound was calculated by the following equation.
The Kp,uu,CSF values and the Kp,brain values of ramelteon and some Example compounds of the present invention are shown in Table 4. Ex represents Example No. of the test compound. Unless otherwise specified, the Kp,uu,CSF was calculated using the fp values determined by an ultracentrifugation method. Further, N.T. represents Not Tested.
(Ramelteon represents the values of Kp,uu,CSF after 10 minutes after the intravenous administration. Further, the Kp,uu,CSF of Examples 37 and 38 was calculated using the fp values determined by an equilibrium dialysis method. In addition, N.D. denotes the concentration of the test compound in CSF that is no higher than the detection limit.)

[2] = tested on: rat; assay: Measurement test of electroencephalogram in rat (sleep-awake cycle); format: in vivo
Source text: After the completion of a quarantine period, the animals showing no abnormal health condition were subjected to an electroencephalogram electrode chronic implantation surgery with reference to brain atlas of Pellegrino (Plenum Press, New York (1979)), or the like. Under anesthesia with pentobarbital sodium, the rat was calibrated in a brain stereotaxic apparatus. In the frontal cortex, a monopolar silver ball electrode having a diameter of the tip of about 1 mm was placed on a hard film of the brain. Into the hippocampus, a laminated bipolar electrodes made of stainless steel was stuck. The reference electrode was screwed around the olfactory brain. Further, as for the electromyogram measurement, the lead wire was implanted in the both electrodes about 1 cm between the electrodes in the neck portion. The other end was exposed to the head portion subcutaneously. The electrodes and the lead wires were subjected to soldering with connector sockets and fixed to the skull with a dental resin or the like.
The rats were accommodated in a measurement cage under rat feeding and water supply on the morning of the day of administration, and accustomed to the measurement environment. After measuring the weight using an electronic scale balance, a lead wire and a connector socket were connected 30 minutes or more before the start of the electroencephalogram measurement, and the rat was accustomed in the measurement state under no anesthesia and no custody. The test compounds were intraperitoneally or orally administered to the rats and the electroencephalogram was measured continuously until 6 hours after the administration.
Ramelteon: solvent, 0.1 mg/kg, 1 mg/kg, and 10 mg/kg; intraperitoneal administration
Example 1: solvent, 3 mg/kg, 30 mg/kg, and 300 mg/kg; oral administration
Example 6: solvent, 10 mg/kg, 30 mg/kg, and 300 mg/kg; oral administration
The electrical signals of electroencephalogram and of electromyogram were applied to an electroencephalogram system and an electroencephalogram frequency analysis program of a personal computer was used to acquire the wave form of the electroencephalogram from the electroencephalograph system. In addition, the image signals of the electroencephalogram waveform were applied to an EEG video system and recorded on DVD-R using a DVD recorder. The behavior observation was carried out through a video camera at the same time as the electroencephalogram measurement and the images were also recorded on DVD-R using DVD recorder.
The presence or absence of abnormality in the electroencephalogram waveform in up to 6 hours from immediately after the administration, to each animal, respectively, was observed.
The analysis of a sleep-awake cycle was carried out using a sleep stage display-supporting program (MTS50061B, Japan Santec Corporation) based on the electroencephalogram waveforms acquired with an electroencephalogram frequency analysis program. Using the index of electroencephalogram, electromyogram, and behavior, the sleep steps were classified into an awake phase, a rest phase, a slow wave light sleep (S.W.L.S.) phase, a slow wave deep sleep (S.W.D.S.) phase, and a fast wave sleep (F.W.S., REM sleep) phase. Further, the rest phase, the slow wave light sleep phase, and the slow wave deep sleep phase were summed to determine a slow wave sleep (S.W.S., Non-REM sleep) phase. […] As the assessment criteria in the respective sleep steps, the criteria described in Japanese Pharmacological Journal 84, 25-89 (1984) were used.

[3] = target: T1, human MT1 receptor (Homo sapiens, UniProt P48039); assay: Activation of human MT1 receptor in receptor-expressing cells, intracellular Ca2+ by FLIPR; format: cell-based
T1 construct: expressed in transfected cells

[4] = target: T2, human MT2 receptor (Homo sapiens, UniProt P49286); assay: Activation of human MT2 receptor in receptor-expressing cells, intracellular Ca2+ by FLIPR; format: cell-based
T2 construct: expressed in transfected cells
T2 sequence (P49286 1-362): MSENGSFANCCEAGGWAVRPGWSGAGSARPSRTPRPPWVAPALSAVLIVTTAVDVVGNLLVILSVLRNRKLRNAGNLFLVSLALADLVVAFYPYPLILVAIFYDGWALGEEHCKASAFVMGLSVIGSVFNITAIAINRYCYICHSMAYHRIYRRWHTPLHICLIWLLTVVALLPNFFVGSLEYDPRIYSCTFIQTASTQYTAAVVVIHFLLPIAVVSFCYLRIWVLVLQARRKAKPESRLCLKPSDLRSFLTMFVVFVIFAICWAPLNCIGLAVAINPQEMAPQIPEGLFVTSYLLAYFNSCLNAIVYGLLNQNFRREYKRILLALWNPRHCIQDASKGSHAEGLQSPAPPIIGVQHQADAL

[5] = tested on: SD female rats; assay: Effect of test compound on urethral pressure in anesthetized rats; format: in vivo, rat
Source text: SD female rats were anesthetized with urethane and subjected to laparotomy. Then, the bladder apex was incised and a catheter was inserted from the bladder apex. Further, the catheter tip was ligated and fixed to be located in the proximal urethra portion. The catheter was connected to a pressure transducer and an infusion pump. Further, a catheter for administrating the compound was fitted into the femoral vein. Physiological saline was continuously infused into the urethra and the perfusion pressure in the urethra was measured. After the urethral pressure was stabilized, the test compound that had been dissolved in physiological saline, or physiological saline including 5% dimethylacetamide and 0.5% Cremophor was administered intravenously at 0.01 mg/kg or 0.1 mg/kg, and a change in urethral pressures was measured.
Further, the results of administering an active metabolite of midodrine (ST-1059: purchased from CHEMIZON) (J. Urology, 118, 980-982 (1977)) which is an α1 adrenoceptor agonist and is confirmed to have a clinical effect on stress urinary incontinence at doses, 0.01 mg/kg and, 0.1 mg/kg in rats, presumed to correspond to the clinical doses are referenced and shown in the Tables below.
The increment value in the urethral pressures of ramelteon and the Example compounds of the present invention at the time of administration are shown in Table 3. Ex represents Example No. of the test compound and N.T represents Not Tested.

[6] = tested on: isolated urethra in a rat; conditions: Patent Document 5; cited from earlier work
[7] = oral, any of the doses 3, 30 and 300 mg/kg
[8] = maximum reaction by ramelteon taken as 100%

T1 sequence (P48039 whole entry): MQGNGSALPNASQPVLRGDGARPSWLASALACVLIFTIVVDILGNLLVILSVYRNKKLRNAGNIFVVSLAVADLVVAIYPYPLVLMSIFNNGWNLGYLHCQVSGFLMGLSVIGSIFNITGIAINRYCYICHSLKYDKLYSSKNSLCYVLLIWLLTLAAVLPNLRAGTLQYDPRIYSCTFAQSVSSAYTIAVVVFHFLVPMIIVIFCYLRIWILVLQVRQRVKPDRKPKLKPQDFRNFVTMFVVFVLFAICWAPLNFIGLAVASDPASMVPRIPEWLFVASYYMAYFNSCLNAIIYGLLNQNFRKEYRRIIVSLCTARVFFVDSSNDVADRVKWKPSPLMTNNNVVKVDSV

Structure (SMILES) | Kp uu at 0.25 h ([1]; CSF and plasma (unbound), iv, 15 minutes after intravenous administration, fp by ultracentrifugation method) | occupancy in the respective sleep steps of electroencephalogram [2, 7] | sleep action [2, 7] | EC50 ([3]; HEK293EBNA1 cells stably expressing human MT1 and Gq/i chimeric G protein, Ca2+ FLIPR) [nM] | Emax [3, 8] [%] | EC50 ([4]; HEK293 cells stably expressing human MT2 and Gq/i chimeric G protein, Ca2+ FLIPR) [nM] | Emax [4, 8] [%] | urethral pressure increasing action ([5]; dose of 0.01 mg/kg) | Kp,uu,CSF ([1]; 10 minutes after the intravenous administration) | Kp uu at 10 min ([1]; CSF and plasma (unbound), iv, 10 minutes after the intravenous administration) | occupancy of the sleep step of electroencephalogram ([2]; 0.1 mg/kg intraperitoneal, up to 6 hours) | occupancy of the respective sleep steps ([2]; 1 mg/kg intraperitoneal, up to 6 hours) | sleep action ([2]; intraperitoneal 0.1, 1 and 10 mg/kg) | contraction of isolated urethra, increase of urethral pressure [6] | Increment value in the urethral pressures compared with ST-1059 ([5]; intravenous)
CCC(=O)NCCc1c(C)[nH]c2ccc(OCCOc3ccn(C)n3)cc12 [Example 1, N-[2-{2-methyl-5-(2-[(1-methyl-1H-pyrazol-3-yl)oxy]ethoxy}-1H-indol-3-yl)ethyl]propanamide] | 0.05 | no change in the occupancy in the respective sleep steps of electroencephalogram could be seen | there was no sleep action | 3.9 | 95 | 14 | 119 | good urethral pressure increasing action | – | – | – | – | – | – | –
CCC(=O)NCC[C@@H]1CCc2ccc3c(c21)CCO3 [Ramelteon, ramelteon, reference compound] | – | – | – | – | – | – | – | – | 1.74 | > 1 | there is a tendency that the occupancy of the sleep step of electroencephalogram from a dose of 0.1 mg/kg increases | significantly increases | there is a sleep action | contract the isolated urethra in a rat to increase the urethral pressure of the rat | equal to or more than that of ST-1059
